# Test results reported in patent US12012410B2, “Substituted pyrazolo[1,5-a]pyrazines for spinal muscular atrophy” (REBORNA BIOSCIENCES, INC., priority 2018, dated 2024).
# Tested on: FL-SMN mRNA (SMN transcript containing exons 7 and 8)
# Test: Live-cell assay to measure changes in FL-SMN mRNA levels (qPCR) after exposure to the compounds
# Type: cell-based, human
# Conditions: fibroblasts derived from patients SMA (GM03813); 24 hours incubation
# Description: In this example, each test compound was administered to cultured cells, and changes in the expression levels of mRNA transcripts of SMN, i.e., FL-SMN containing exons 7 and 8 and Delta7 with exon 7 skipped, were examined using PCR.
# Fibroblasts derived from patients SMA (GM03813) (Coriell Cell Repositories) were cultured with passages using DMEM (High Glucose) (Life Technologies) supplemented with 10% FBS (Life Technologies). Cells were seeded in tissue-culture-treated 96-well plates (Corning) at 1.5 or 0.5×10^4 cells/well in 100 μL of medium. The cells were incubated in 5% CO2 for 6 hours, and the medium was replaced with 100 μL of medium (with DMSO, 0.1% final concentration) containing each of the compounds given in the Examples. After additional incubation for 24 hours under the same conditions, the cells were washed once with D-PBS(—) (Wako) and 25 μL/well of the lysis solution (with gDNA Remove) contained in the SuperPrep (registered trademark) Cell Lysis & RT Kit for qPCR (Toyobo life science) was added according to the manufacturer's instructions so that the cells were lysed and the genomic DNA was degraded. Furthermore, 5 μL of the STOP solution (with RNase Inhibitor) contained in the kit was added to provide RNA-containing solutions. Six microliters of the RNA-containing solutions were each mixed with 14 μL of a reverse transcription solution containing transcriptase together with dNTP, random primers and an oligodT primer. Reverse transcription was performed at 37° C. (15 min), 50° C. (5 min), and 98° C. (5 min), to give total cDNAs. The total cDNAs were diluted 30-fold with Ultra-pure water (Invitrogen) to measure the expression levels of FL-SMN, delta7, and GAPDH. For quantitative PCR (qPCR), a PCR solution was prepared according to the instructions of the manufacturer of the THUNDERBIRD (registered trademark) Probe qPCR Mix (Toyobo life science). Five microliters of the diluted total cDNA solutions and oligo DNA standard solutions, each containing either 001-Standard FL-SMN (SEQ ID NO. 1) or 002-Standard delta7 (SEQ ID NO. 2), were each mixed with 10 μL of each of the PCR solutions containing a qPCR probe, primers, and PCR enzyme. […] The oligoDNA standard solutions were prepared as those containing either of 5×10^8, 5×10^7, 5×10^6, 5×10^5, 5×10^4, 5×10^3, 5×10^2, 5×10, 5, or 0 copies. For the oligo DNA standards, primers, and probes, oligonucleotides synthesized by Integrated DNA Technologies, Inc. (IDT) were used. […] FIGS. 3B and 3D show their detection mechanisms. The final concentrations of the primers and probes added were 0.4 μM and 0.15 μM, respectively. The qPCR was performed using the following conditions on a ViiA7 instrument (Applied Biosystems): first stage: 95° C. (1 min)→second stage: 95° C. (15 sec)→third stage: 60° C. (1 min)→40 repeated cycles of the second and third stages. The GAPDH mRNA was used as the internal control, and the commercially available 20×gene expression PCR assay (Life Technologies, 4326317E, Hs99999905_ml) and Standard GAPDH (SEQ ID NO. 7) (see FIG. 1) was used to determine the number of copies of this gene. The measurement values obtained for the samples to be measured were standardized against the respective value obtained for GAPDH.
# Using the above-mentioned assays, the activities of the compounds of the Examples were evaluated. Specifically, the percentages of the FL-SMN and delta7 values obtained using DMSO without the compounds and standardized against GAPDH were set as 100% and those of the FL-SMN and delta7 values obtained at the time of administration of the compounds and standardized against GAPDH were calculated. […]
row,Structure (SMILES),"Percentage of increase (FL-SMN mRNA standardized against GAPDH, DMSO control set as 100%)"
1,"CN1CCC(c2ccc3nc(C4=NOC5(CCN(C)CC5)C4)[nH]c(=O)c3c2)CC1 [Example 43, 2-(8-methyl-1-oxa-2,8-diazaspiro[4.5]dec-2-en-3-yl)-6-(1-methylpiperidin-4-yl)quinazolin-4(3H)-one]",* (equal to or higher than 100% but lower than 120%)
2,"Cc1ccc(-c2nc3ccc(C4CCN(C)CC4)cc3c(=O)[nH]2)c(=O)n1C [Example 44, 2-(1,6-dimethyl-2-oxo-1,2-dihydropyridin-3-yl)-6-(1-methylpiperidin-4-yl)quinazolin-4(3H)-one]",** (equal to or higher than 120% but lower than 150%)
3,"COc1cccc(-c2nc3ccc(C4CCN(C)CC4)cc3c(=O)[nH]2)n1 [Example 45, 2-(6-methoxypyridin-2-yl)-6-(1-methylpiperidin-4-yl)quinazolin-4(3H)-one]",** (equal to or higher than 120% but lower than 150%)
4,"CN1CCC(c2ccc3nc(-c4cc5n(n4)CCOC5)[nH]c(=O)c3c2)CC1 [Example 46, 2-(6,7-dihyrdo-4H-pyrazolo[5,1-c][1,4]oxazin-2-yl)-6-(1-methylpiperidin-4-yl)quinazolin-4(3H)-one]",* (equal to or higher than 100% but lower than 120%)
5,"COc1cccc(-c2nc3ccc(C4CCN(C)CC4)cc3c(=O)[nH]2)c1F [Example 47, 2-(2-fluoro-3-methoxyphenyl)-6-(1-methylpiperidin-4-yl)quinazolin-4(3H)-one]",* (equal to or higher than 100% but lower than 120%)
6,"COc1ccnc(-c2nc3ccc(C4CCN(C)CC4)cc3c(=O)[nH]2)c1 [Example 48, 2-(4-Methoxypyridin-2-yl)-6-(1-methylpiperidin-4-yl)quinazolin-4(3H)-one]",* (equal to or higher than 100% but lower than 120%)
7,"COc1ccc(F)c(-c2nc3ccc(C4CCN(C)CC4)cc3c(=O)[nH]2)c1 [Example 49, 2-(2-fluoro-5-methoxyphenyl)-6-(1-methylpiperidin-4-yl)quinazolin-4(3H)-one]",* (equal to or higher than 100% but lower than 120%)
8,"Cc1cn2cc(-c3nc4ccc(N5CCN(C)CC5)cc4c(=O)[nH]3)nc2c(C)n1 [Example 50, 2-(6,8-dimethylimidazo[1,2-a]pyrazin-2-yl)-6-(4-methylpiperazin-1-yl)quinazolin-4(3H)-one]",** (equal to or higher than 120% but lower than 150%)
9,"COc1cc2nc(-c3cc4c(C)nc(C)cn4n3)[nH]c(=O)c2cc1C1CCN(C)CC1 [Example 51, 2-(4,6-dimethylpyrazolo[1,5-a]pyrazin-2-yl)-7-methoxy-6-(1-methylpiperidin-4-yl)quinazolin-4(3H)-one]",* (equal to or higher than 100% but lower than 120%)
10,"COc1cc(C2CCN(C)CC2)cc2c(=O)[nH]c(-c3cc4c(C)nc(C)cn4n3)nc12 [Example 52, 2-(4,6-dimethylpyrazolo[1,5-a]pyrazin-2-yl)-8-methoxy-6-(1-methylpiperidin-4-yl)quinazolin-4(3H)-one]",** (equal to or higher than 120% but lower than 150%)
11,"Cc1cn2cc(-c3nc4ccc(N5CCN(C)CC5)cc4c(=O)[nH]3)cc(F)c2n1 [Example 53, 2-(8-fluoro-2-methylimidazo[1,2-a]pyridin-6-yl)-6-(4-methylpiperazin-1-yl)quinazolin-4(3H)-one]",** (equal to or higher than 120% but lower than 150%)
